Laboratory results: patent US9408891B2, “Methods of using gelsolin to treat or prevent bacterial sepsis” (priority 2003, dated 2016)
“Also recorded” adds a separate entry of the source.

Key:
[1] = target: T1, gelsolin activity in whole human serum (Homo sapiens, UniProt P06396); experiment: Actin filament severing activity of whole human serum; assay type: biochemical; conditions: larger amounts needed than with pure gelsolin
T1 construct: from tissue; host or cells: whole human serum (2.5 µl)
Protocol: (§1) As shown, recombinant human gelsolin (rhGLS) (FIG. 4A) and blood serum (FIG. 4B) severing activity was measured in 0.4 μM pyrene-labeled F-actin samples (polymerized with 50% pyrene-labeled G-actin), after adding gelsolin (16 nM)/serum (2.5 μl), or their combination with one of the following: LPS (from different species), PIP2 (phosphatidyl-inositol-4,5-bisphosphate), LPA (lysophosphatidic acid), lipid A (the LPS derivative lacking polysaccharide) or PS (phosphatidylserine). The fluorescence intensity of F-pyrene actin was then monitored for 10 minutes, and the severing activity was calculated based on decreasing fluorescence. Severing activity was determined from a decrease in rate of fluorescence during depolymerization, and the depolymerization rate was calculated from the slope of the early decrease in fluorescence.

[2] = target: T2, recombinant human gelsolin (rhGLS) (Homo sapiens, UniProt P06396); experiment: Actin filament severing activity of purified gelsolin (pyrene F-actin depolymerization); assay type: biochemical
T2 construct: purchased Biogen IDEC, Inc., Cambridge, Mass; host or cells: E. coli
Protocol: To determine gelsolin's severing activity, rates of fluorescence decrease were evaluated during depolymerization. Monomeric G-actin was prepared from an acetone powder of rabbit skeletal muscle according to previously published methods (Spudich et al., J. Biol. Chem […]). The non-polymerizing solution contained 2 mM TRIS, 0.2 mM CaCl2, 0.5 mM ATP (adenosine triphosphate), 0.2 mM DTT (dithiothreitol) pH 7.4. Actin was polymerized by adding 150 mM KCl and 2 mM MgCl2 to the G-actin solutions and incubating for 1 hour at room temperature.
For F-actin severing assays, in general, a small volume (typically 5 μl) of the gelsolin composition is added to a similar volume of pyrene-labeled F-actin at a concentration adjusted to provide an actin:gelsolin ratio of approximately 10:1 (typically 1 μM gelsolin and 10 μM actin). This mixture is the diluted to 0.5 μM in a larger volume of F-actin buffer, and the filament severing efficiency is calculated from the initial slope of the fluorescence change. This reflects the rate of depolymerization that, in turn, is proportional to the number of cuts made by gelsolin. The LPS/gelsolin reaction can be done under any ionic condition, and the addition to F-actin requires the presence of […] Ca^2+ to activate the gelsolin. […] The actin nucleation reaction is similar except that in the latter case, the gelsolin/LPS mixture is added to a more dilute solution of G-actin (typically, 1 or 2 μM) in low ionic strength buffer followed immediately by addition of 150 mM KCI and 2 mM MgCl2 to initiate polymerization.
as §1

[3] = target: T3, Gc-globulin (vitamin D-binding protein) (Homo sapiens, UniProt P02774); experiment: Actin-sequestering activity of Gc-globulin; assay type: biochemical; conditions: LPS at least up to 100 μM
T3 sequence (P02774 17-474): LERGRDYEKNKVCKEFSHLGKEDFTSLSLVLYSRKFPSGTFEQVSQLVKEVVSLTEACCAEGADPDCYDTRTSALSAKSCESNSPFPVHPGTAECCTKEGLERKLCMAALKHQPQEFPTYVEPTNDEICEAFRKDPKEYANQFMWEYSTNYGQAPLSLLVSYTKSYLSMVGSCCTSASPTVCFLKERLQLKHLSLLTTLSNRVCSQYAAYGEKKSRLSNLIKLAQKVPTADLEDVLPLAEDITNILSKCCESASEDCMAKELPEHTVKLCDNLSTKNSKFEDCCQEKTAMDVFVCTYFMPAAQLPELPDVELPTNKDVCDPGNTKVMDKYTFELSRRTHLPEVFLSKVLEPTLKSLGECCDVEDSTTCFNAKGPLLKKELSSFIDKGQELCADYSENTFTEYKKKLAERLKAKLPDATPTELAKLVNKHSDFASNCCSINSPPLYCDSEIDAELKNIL

[4] = target: T4, PBP10 (PIP2-binding site of gelsolin) (Homo sapiens, UniProt P06396); experiment: Rhodamine-B fluorescence change of gelsolin peptide PBP10 after adding lipids; conditions: 2 μM peptide, buffer A pH 7.0, 15 min
T4 construct: made in house; host or cells: solid phase peptide synthesis
Protocol: Therefore, to determine changes of gelsolin OD at 280 nm, different amounts of LPS, LPA and PS were added to recombinant human gelsolin (rhGLS) solutions and OD emission spectra were recorded using spectrophotometer Genesys 6 (Thermo-Spectronic, USA).
Interaction of LPS and gelsolin was examined using rhodamine B- and pyrene-labeled SEQ ID No:1 (QRLFQVKGRR). The effect of LPS on gelsolin was determined in terms of the rhodamine-B fluorescent changes of PBP10 peptide in the presence of different lipids (FIG. 1C); and the fluorescence emission spectra of pyrene-labeled SEQ ID No:1 (2 μM) in the presence of LPS from Escherichia coli (1.2 μM), PIP2 (0.82 μM) and LPA (0.82 μM) (FIG. 1D) The results using the pyrene-derivatized gelsolin peptide confirmed the LPS induced clustering of the peptide with resulting excimer fluorescence of the pyrene group, which was evident as a large increase in fluorescence emission at 480 nm.
The tested gelsolin concentration was 50 nM; LTA ranged from 0-50 μM; Pyrene-F-actin was 0.3 μM. Recording changes in fluorescently-labeled (rhodamine B-labeled) gelsolin peptide PBP10 (10 μM), indicates a specific interaction between gelsolin and LTA.

[5] = Neutron scattering of LPS with gelsolin peptide; assay type: physicochemical; conditions: preliminary neutron scattering, cylindrical structure
Text: The molecular structure of LPS and its complexes with proteins can be measured at nm resolution by X-ray and neutron scattering, as well as by electron and atomic force microscopy.
At present, the calculated diameter (36 nm) is greater than that which has been previously reported for pure LPS micelles, and the difference in size may reflect another structural feature. In additional experiments with more variations in gelsolin/LPS or peptide, LPS ratios will reveal if there are significant changes in LPS particle structure when these peptides bind LPS.

T2 sequence (P06396 28-782): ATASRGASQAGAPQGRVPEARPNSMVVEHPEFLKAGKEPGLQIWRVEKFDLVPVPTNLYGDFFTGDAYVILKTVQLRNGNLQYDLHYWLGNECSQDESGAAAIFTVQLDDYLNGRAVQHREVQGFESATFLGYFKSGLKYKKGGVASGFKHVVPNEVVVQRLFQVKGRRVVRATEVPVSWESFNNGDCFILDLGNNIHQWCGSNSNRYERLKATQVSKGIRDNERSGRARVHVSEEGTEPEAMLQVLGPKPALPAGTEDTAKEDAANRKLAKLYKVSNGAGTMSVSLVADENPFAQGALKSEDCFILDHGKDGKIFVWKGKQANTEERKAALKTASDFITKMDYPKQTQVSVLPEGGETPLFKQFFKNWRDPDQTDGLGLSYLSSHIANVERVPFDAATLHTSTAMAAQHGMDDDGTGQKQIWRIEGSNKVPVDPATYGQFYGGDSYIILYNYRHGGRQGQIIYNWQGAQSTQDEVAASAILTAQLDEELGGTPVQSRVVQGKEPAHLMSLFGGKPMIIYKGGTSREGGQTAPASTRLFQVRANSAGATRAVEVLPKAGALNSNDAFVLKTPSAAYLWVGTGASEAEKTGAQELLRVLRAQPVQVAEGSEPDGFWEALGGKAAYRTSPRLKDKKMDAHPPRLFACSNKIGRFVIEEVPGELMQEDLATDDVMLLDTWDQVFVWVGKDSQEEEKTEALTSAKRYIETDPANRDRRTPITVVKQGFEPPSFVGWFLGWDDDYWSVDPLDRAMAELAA
T1 sequence (P06396 28-782): as above

lipopolysaccharide [LPS]
inhibition of gelsolin activity in whole human serum [1]: able to inhibit gelsolin activity; also recorded: inhibitory efficiency varies with the bacterial species
inhibition of severing activity of gelsolin ([2]; 0.02 μM LPS (100 ng/ml), 0.016 μM gelsolin): 50%
inhibition of severing capability of gelsolin ([2]; 0.1 μM LPS, 0.016 μM gelsolin): 90%
inhibition of severing activity of purified human gelsolin ([2]; LPS concentration not stated at this place): 50%
inhibitory effect on severing activity of purified gelsolin ([2]; molar basis comparison): more potent inhibitor than either LPA or P1P2; also recorded: more potent inhibitor; also recorded: more potent inhibitor of gelsolin actin severing capability than either LPA or PIP2
effect on actin-sequestering activity of Gc-globulin [3]: unaffected
fluorescence quenching / change of rhodamine-B peptide [4]: induced identical concentration-dependent fluorescence quenching
calculated diameter [5]: 36 nm
